From patent publication US20060128773A1, “Wood preservatives and waterproofing compositions and processes” (priority 2004, published 2006)

How the values were obtained:
[1] = Leaching study of treated wood test blocks into water (Example 4); type: physicochemical
Experimental: In this example test blocks were prepared in accordance with the procedure of Example 1 and subjected a leaching study using the following procedure. • 1. The wood test blocks were placed in 500 ml plastic containers with screw caps. • 2. Water was added to the containers to over flowing and the container was sealed. • 3. The containers were stored at room temperature.
4. After two days the containers were opened and the leachate was analyzed for active quaternary compound (QAC) using a Hach DR/2400 Spectrophotometer.

[2] = Leaching study of treated wood test blocks into water (Example 2); type: physicochemical
Experimental: Wood test blocks prepared in accordance with Example 1, were subjected to a leaching study.
In this leaching study the following procedure was observed. • 1. The wood test block was placed in 500 ml plastic containers with screw caps. • 2. Water was added to the container to over flowing and the container was sealed. • 3. The containers were stored at room temperature. • 4.

CANDIDA ALBICANS = settings: ATCC # 10231; lowest concentration which inhibits growth in all replicates
[3] = system: METHICILLIAN-RESISTANT STAPHYLOCOCCUS AUREUS; settings: ATCC # 33593; lowest concentration which inhibits growth in all replicates
ST[…] = settings: ATCC # 6538; lowest concentration which inhibits growth in all replicates
SALMONELLA CHOLERAESUIS = settings: ATCC # 10708; ten-minute contact time
PSEUDOMONAS AERUGINOSA [4] = settings: ATCC # 15442; ten-minute contact time
PSEUDOMONAS AERUGINOSA [5] = settings: ATCC # 15442; lowest concentration which inhibits growth in all replicates
AS[…] = settings: ATCC # 16424; lowest concentration which inhibits growth in all replicates
STAPHYLOCOCCUS AUREUS = settings: ATCC # 6538; ten-minute contact time
SERRATIA MARCESANS = settings: ATCC # 13880; lowest concentration which inhibits growth in all replicates
LISTERIA MONOCYTOGENES = settings: ATCC # 35152; lowest concentration which inhibits growth in all replicates
EN[…] = settings: ATCC # 13048; lowest concentration which inhibits growth in all replicates
ESCHERICHIA = settings: ATCC # 11229; lowest concentration which inhibits growth in all replicates

| Substance | leaching relative to the ADBAS compound ([1]; Example 4, ratio of averages) | AVERAGE active quaternary compound in leachate, FINAL DATE Sep. 5, 2004 ([1]; average of three blocks, water, room temperature, start Sep. 1, 2004) | leaching of quaternary ammonium compound relative to the ADBAS compound ([2]; Example 2, ratio of averages) | AVERAGE active quaternary compound in leachate, FINAL DATE May 8, 2004 ([2]; average of three blocks, water, room temperature, after two days) | Minimum Inhibitory Concentration (MIC) CONCENTRATION (CANDIDA ALBICANS) | Minimum Inhibitory Concentration (MIC) CONCENTRATION [3] | Minimum Inhibitory Concentration (MIC) CONCENTRATION (ST[…]) | AOAC USE-DILUTION VALUES CONCENTRATION (SALMONELLA CHOLERAESUIS) | AOAC USE-DILUTION VALUES CONCENTRATION (PSEUDOMONAS AERUGINOSA [4]) | Minimum Inhibitory Concentration (MIC) CONCENTRATION (PSEUDOMONAS AERUGINOSA [5]) | Minimum Inhibitory Concentration (MIC) CONCENTRATION (AS[…]) | AOAC USE-DILUTION VALUES CONCENTRATION (STAPHYLOCOCCUS AUREUS) | Minimum Inhibitory Concentration (MIC) CONCENTRATION (SERRATIA MARCESANS) | Minimum Inhibitory Concentration (MIC) CONCENTRATION (LISTERIA MONOCYTOGENES) | Minimum Inhibitory Concentration (MIC) CONCENTRATION (EN[…]) | Minimum Inhibitory Concentration (MIC) CONCENTRATION (ESCHERICHIA) |
| --- | --- | --- | --- | --- | --- | --- | --- | --- | --- | --- | --- | --- | --- | --- | --- | --- |
| alkyl dimethyl benzyl ammonium chloride [ADBAC] | 8.1 times | 480.0 PPM QAC | 3.25 times | 45.24 PPM QAC | – | – | – | – | – | – | – | – | – | – | – | – |
| alkyl dimethyl benzyl ammonium saccharinate [ADBAS] | – | – | – | – | 100 PPM | 0.5 PPM | 1 PPM | 600 PPM | 700 PPM | 100 PPM | 10 PPM | 600 PPM | 10 PPM | 1 PPM | 10 PPM | 10 PPM |
